Reference: PubChem BioAssay (NCI)
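Values below derive from 48-hour exposures of cells grown in 96-well plates, with endpoints linearly interpolated between the two concentrations bracketing the appropriate inhibition level. At the TGI there is no net growth.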

How the values were obtained:
Assay in all cases: NCI tumour cell line growth inhibition, 48 h
786-0 renal = test system: 786-0 renal
A498 renal = test system: A498 renal
A549 NSCLC = test system: A549 NSCLC
ACHN renal = test system: ACHN renal
BT-549 breast = test system: BT-549 breast
CAKI-1 renal = test system: CAKI-1 renal
CCRF-CEM leukemia = test system: CCRF-CEM leukemia
COLO 205 colon = test system: COLO 205 colon
DU-145 prostate = test system: DU-145 prostate
EKVX NSCLC = test system: EKVX NSCLC
HCC-2998 colon = test system: HCC-2998 colon
HCT-116 colon = test system: HCT-116 colon
HCT-15 colon = test system: HCT-15 colon
HL-60(TB) leukemia = test system: HL-60(TB) leukemia
HOP-62 NSCLC = test system: HOP-62 NSCLC
HOP-92 NSCLC = test system: HOP-92 NSCLC
HS 578T breast = test system: HS 578T breast
HT29 colon = test system: HT29 colon
IGROV1 ovarian = test system: IGROV1 ovarian
K-562 leukemia = test system: K-562 leukemia
KM12 colon = test system: KM12 colon
LOX IMVI melanoma = test system: LOX IMVI melanoma
M14 melanoma = test system: M14 melanoma
MALME-3M melanoma = test system: MALME-3M melanoma
MCF7 breast = test system: MCF7 breast
MDA-MB-231 breast = test system: MDA-MB-231 breast
MDA-MB-435 = test system: MDA-MB-435
MDA-N = test system: MDA-N
MOLT-4 leukemia = test system: MOLT-4 leukemia
NCI-H23 lung = test system: NCI-H23 lung
NCI-H460 lung = test system: NCI-H460 lung
NCI-H522 lung = test system: NCI-H522 lung
NCI/ADR-RES ovarian = test system: NCI/ADR-RES ovarian
OVCAR-3 ovarian = test system: OVCAR-3 ovarian
OVCAR-4 ovarian = test system: OVCAR-4 ovarian
OVCAR-5 ovarian = test system: OVCAR-5 ovarian
OVCAR-8 ovarian = test system: OVCAR-8 ovarian
PC-3 prostate = test system: PC-3 prostate
RPMI-8226 leukemia = test system: RPMI-8226 leukemia
RXF 393 renal = test system: RXF 393 renal
SF-268 CNS = test system: SF-268 CNS
SF-295 CNS = test system: SF-295 CNS
SF-539 CNS = test system: SF-539 CNS
SK-MEL-2 melanoma = test system: SK-MEL-2 melanoma
SK-MEL-28 melanoma = test system: SK-MEL-28 melanoma
SK-MEL-5 melanoma = test system: SK-MEL-5 melanoma
SK-OV-3 ovarian = test system: SK-OV-3 ovarian
SN12C renal = test system: SN12C renal
SNB-19 CNS = test system: SNB-19 CNS
SR leukemia = test system: SR leukemia
SW-620 colon = test system: SW-620 colon
T-47D breast = test system: T-47D breast
TK-10 renal = test system: TK-10 renal
U251 CNS = test system: U251 CNS
UACC-257 melanoma = test system: UACC-257 melanoma
UACC-62 melanoma = test system: UACC-62 melanoma
UO-31 renal = test system: UO-31 renal
NCI-H226 lung = test system: NCI-H226 lung
SNB-75 CNS = test system: SNB-75 CNS

SMILES: COc1ccc(-n2c3c(c4c(CN(C)C)c(O)ccc42)C(=O)c2ccccc2C3=O)cc1
- TGI (786-0 renal): 4.52 µM
- TGI (A498 renal): 8.47 µM
- TGI (A549 NSCLC): 37.5 µM
- TGI (ACHN renal): 3.9 µM
- TGI (BT-549 breast): 35.9 µM
- TGI (CAKI-1 renal): 34.5 µM
- TGI (CCRF-CEM leukemia): 8.35 µM
- TGI (COLO 205 colon): 20.7 µM
- TGI (DU-145 prostate): 29.2 µM
- TGI (EKVX NSCLC): 25.4 µM
- TGI (HCC-2998 colon): 5.42 µM
- TGI (HCT-116 colon): 3.98 µM
- TGI (HCT-15 colon): 10.5 µM
- TGI (HL-60(TB) leukemia): 19.5 µM
- TGI (HOP-62 NSCLC): 4.72 µM
- TGI (HOP-92 NSCLC): 44.8 µM
- TGI (HS 578T breast): > 100 µM
- TGI (HT29 colon): 6.3 µM
- TGI (IGROV1 ovarian): 23 µM
- TGI (K-562 leukemia): 4.62 µM
- TGI (KM12 colon): 10.7 µM
- TGI (LOX IMVI melanoma): 7 µM
- TGI (M14 melanoma): 11.8 µM
- TGI (MALME-3M melanoma): 27.1 µM
- TGI (MCF7 breast): 24.9 µM
- TGI (MDA-MB-231 breast): 7.67 µM
- TGI (MDA-MB-435): 30.9 µM
- TGI (MDA-N): 21.2 µM
- TGI (MOLT-4 leukemia): > 100 µM
- TGI (NCI-H23 lung): 29.6 µM
- TGI (NCI-H460 lung): 26.2 µM
- TGI (NCI-H522 lung): 30.7 µM
- TGI (NCI/ADR-RES ovarian): 26.3 µM
- TGI (OVCAR-3 ovarian): 30.8 µM
- TGI (OVCAR-4 ovarian): 15.9 µM
- TGI (OVCAR-5 ovarian): 17.1 µM
- TGI (OVCAR-8 ovarian): 20.5 µM
- TGI (PC-3 prostate): 37.1 µM
- TGI (RPMI-8226 leukemia): 4.88 µM
- TGI (RXF 393 renal): 52.2 µM
- TGI (SF-268 CNS): 44.9 µM
- TGI (SF-295 CNS): 33.2 µM
- TGI (SF-539 CNS): 3.89 µM
- TGI (SK-MEL-2 melanoma): 45.8 µM
- TGI (SK-MEL-28 melanoma): 14.7 µM
- TGI (SK-MEL-5 melanoma): 5.67 µM
- TGI (SK-OV-3 ovarian): 8.01 µM
- TGI (SN12C renal): 7.15 µM
- TGI (SNB-19 CNS): > 100 µM
- TGI (SR leukemia): 6.84 µM
- TGI (SW-620 colon): 7.53 µM
- TGI (T-47D breast): 6.99 µM
- TGI (TK-10 renal): 36.8 µM
- TGI (U251 CNS): > 100 µM
- TGI (UACC-257 melanoma): 41.2 µM
- TGI (UACC-62 melanoma): 15.7 µM
- TGI (UO-31 renal): 5.11 µM

SMILES: CC(=O)O[C@H]1C(=O)[C@@]2(C)[C@H]([C@H](OC(=O)c3ccccc3)[C@]3(O)C[C@H](OC(=O)[C@H](O)[C@@H](NC(=O)CC(C)C)c4ccccc4)C(C)=C1C3(C)C)[C@]1(OC(C)=O)CO[C@@H]1C[C@@H]2O
- TGI (786-0 renal): > 10 µM
- TGI (A498 renal): > 10 µM
- TGI (A549 NSCLC): > 10 µM
- TGI (ACHN renal): > 10 µM
- TGI (BT-549 breast): > 10 µM
- TGI (CAKI-1 renal): > 10 µM
- TGI (CCRF-CEM leukemia): > 10 µM
- TGI (COLO 205 colon): 0.0112 µM
- TGI (DU-145 prostate): 0.188 µM
- TGI (EKVX NSCLC): > 10 µM
- TGI (HCC-2998 colon): 0.0636 µM
- TGI (HCT-116 colon): > 10 µM
- TGI (HCT-15 colon): > 10 µM
- TGI (HL-60(TB) leukemia): 0.00899 µM
- TGI (HOP-62 NSCLC): > 10 µM
- TGI (HOP-92 NSCLC): 9.85 µM
- TGI (HS 578T breast): 0.00822 µM
- TGI (HT29 colon): 0.0296 µM
- TGI (IGROV1 ovarian): > 10 µM
- TGI (K-562 leukemia): > 10 µM
- TGI (LOX IMVI melanoma): > 10 µM
- TGI (M14 melanoma): > 10 µM
- TGI (MALME-3M melanoma): > 10 µM
- TGI (MCF7 breast): > 10 µM
- TGI (MDA-MB-231 breast): > 10 µM
- TGI (MDA-N): > 10 µM
- TGI (MOLT-4 leukemia): > 10 µM
- TGI (NCI-H226 lung): > 10 µM
- TGI (NCI-H23 lung): > 10 µM
- TGI (NCI-H460 lung): > 10 µM
- TGI (NCI-H522 lung): 0.0135 µM
- TGI (NCI/ADR-RES ovarian): > 10 µM
- TGI (OVCAR-4 ovarian): > 10 µM
- TGI (OVCAR-5 ovarian): > 10 µM
- TGI (OVCAR-8 ovarian): > 3.24 µM
- TGI (SF-268 CNS): > 10 µM
- TGI (SF-295 CNS): 0.508 µM
- TGI (SF-539 CNS): 0.196 µM
- TGI (SK-MEL-2 melanoma): > 10 µM
- TGI (SK-MEL-28 melanoma): > 10 µM
- TGI (SK-MEL-5 melanoma): > 10 µM
- TGI (SN12C renal): > 10 µM
- TGI (SNB-19 CNS): > 10 µM
- TGI (SNB-75 CNS): 0.0253 µM
- TGI (SR leukemia): 0.138 µM
- TGI (SW-620 colon): > 10 µM
- TGI (T-47D breast): > 10 µM
- TGI (TK-10 renal): > 10 µM
- TGI (U251 CNS): > 10 µM
- TGI (UACC-257 melanoma): > 10 µM
- TGI (UACC-62 melanoma): > 10 µM
- TGI (UO-31 renal): > 10 µM
